Here are results for four compounds from ChEMBL document CHEMBL4680222, “Sensitive fluorogenic substrates for sirtuin deacylase inhibitor discovery” (Eur J Med Chem, 2020).

Activity calls are given as the source filed them. The rule behind the calls is not given here. *1 amine or outer side, *2 acyl side, *3 side chain or, on linkers, in order; H or OH if unused. Where a SMILES comes first, the peptide text is derived from it. The star is where a group is joined. AMC = Cc1cc(=O)oc2cc(N*)ccc12; Suc = O=C(CCC(=O)[*:2])[*:1]; Decanoyl = CCCCCCCCCC(=O)*

The target in assay [1] is T1, NAD-dependent protein deacetylase sirtuin-3, mitochondrial (Homo sapiens) (UniProt Q9NTG7).
T1 sequence (whole entry): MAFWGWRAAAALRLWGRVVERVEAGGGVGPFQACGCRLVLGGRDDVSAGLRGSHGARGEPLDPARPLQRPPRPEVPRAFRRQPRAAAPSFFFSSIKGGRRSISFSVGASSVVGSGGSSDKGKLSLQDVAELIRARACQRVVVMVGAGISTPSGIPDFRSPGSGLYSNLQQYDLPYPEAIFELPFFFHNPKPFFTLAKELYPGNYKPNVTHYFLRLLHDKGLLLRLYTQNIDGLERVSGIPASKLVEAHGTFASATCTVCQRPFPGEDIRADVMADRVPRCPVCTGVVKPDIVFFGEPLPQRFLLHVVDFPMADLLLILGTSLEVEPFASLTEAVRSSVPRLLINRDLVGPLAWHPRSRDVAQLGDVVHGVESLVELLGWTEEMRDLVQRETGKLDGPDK
Briefly: Substrate activity at human N-terminal His-tagged SIRT3 (122 to 391 residues) expressed in Escherichia coli at 5 uM measured after 2 hrs in presence of NAD+ and trypsin by fluorescence assay.

Assay [2] deals with T2, NAD-dependent protein deacetylase sirtuin-7 (Homo sapiens) (UniProt Q9NRC8).
T2 sequence (whole entry): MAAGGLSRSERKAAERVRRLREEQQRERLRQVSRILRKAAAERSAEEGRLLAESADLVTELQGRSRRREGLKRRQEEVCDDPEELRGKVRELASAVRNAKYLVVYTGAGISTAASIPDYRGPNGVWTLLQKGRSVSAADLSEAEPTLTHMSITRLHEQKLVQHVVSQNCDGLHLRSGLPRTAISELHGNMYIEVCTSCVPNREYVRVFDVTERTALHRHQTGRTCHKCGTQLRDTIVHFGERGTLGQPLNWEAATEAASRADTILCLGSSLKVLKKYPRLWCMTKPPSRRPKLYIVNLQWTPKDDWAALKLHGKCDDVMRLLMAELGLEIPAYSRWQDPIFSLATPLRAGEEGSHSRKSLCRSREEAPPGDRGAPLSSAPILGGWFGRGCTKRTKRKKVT
Briefly: Substrate activity at human N-terminal His-tagged SIRT7 (68 to 354 residues) expressed in Escherichia coli at 0.5 uM measured after 2 hrs in presence of NAD+ and trypsin by fluorescence assay.

The target of assay [3] is NAD-dependent protein deacylase sirtuin-5, mitochondrial (Homo sapiens) (UniProt Q9NXA8). Briefly: Substrate activity at human N-terminal His-tagged SIRT5 (34 to 302 residues) expressed in Escherichia coli at 0.5 uM measured after 2 hrs in presence of NAD+ and trypsin by fluorescence assay.
NAD-dependent protein deacylase sirtuin-5, mitochondrial (Homo sapiens), sequence (Q9NXA8 37-310 limits assumed): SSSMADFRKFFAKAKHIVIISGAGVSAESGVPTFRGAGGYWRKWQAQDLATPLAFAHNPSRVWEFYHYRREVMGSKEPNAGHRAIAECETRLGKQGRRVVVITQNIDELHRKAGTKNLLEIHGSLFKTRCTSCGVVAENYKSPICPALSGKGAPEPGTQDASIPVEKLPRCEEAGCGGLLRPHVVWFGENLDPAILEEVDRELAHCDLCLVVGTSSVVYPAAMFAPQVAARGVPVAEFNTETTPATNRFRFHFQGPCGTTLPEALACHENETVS
Assay [4] addresses T3, NAD-dependent protein deacetylase sirtuin-2 (Homo sapiens) (UniProt Q8IXJ6).
T3 sequence (whole entry): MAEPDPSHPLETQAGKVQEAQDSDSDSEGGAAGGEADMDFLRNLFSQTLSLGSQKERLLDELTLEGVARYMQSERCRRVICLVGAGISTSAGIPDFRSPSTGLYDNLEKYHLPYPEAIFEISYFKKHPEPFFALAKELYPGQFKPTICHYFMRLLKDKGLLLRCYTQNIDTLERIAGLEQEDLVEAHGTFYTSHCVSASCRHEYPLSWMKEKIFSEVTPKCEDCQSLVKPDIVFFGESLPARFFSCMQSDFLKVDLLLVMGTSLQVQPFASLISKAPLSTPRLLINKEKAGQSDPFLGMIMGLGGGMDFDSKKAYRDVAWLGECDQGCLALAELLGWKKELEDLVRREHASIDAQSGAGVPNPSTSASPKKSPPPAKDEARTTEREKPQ
The assay can be described thus: Substrate activity at human N-terminal His-tagged SIRT2 (56 to 356 residues) expressed in Escherichia coli at 0.5 uM measured after 2 hrs in presence of NAD+ and trypsin by fluorescence assay.

The target of assay [5] is T3, NAD-dependent protein deacetylase sirtuin-2 (Homo sapiens). The assay can be described thus: Substrate activity at human N-terminal His-tagged SIRT2 (56 to 356 residues) expressed in Escherichia coli at 5 uM measured after 2 hrs in presence of NAD+ and trypsin by fluorescence assay.
The target in assay [6] is T2, NAD-dependent protein deacetylase sirtuin-7 (Homo sapiens). The assay can be described thus: Substrate activity at human N-terminal His-tagged SIRT7 (68 to 354 residues) expressed in Escherichia coli at 50 uM measured after 2 hrs in presence of NAD+ and trypsin by fluorescence assay.
The target in assay [7] is T4, NAD-dependent protein deacetylase sirtuin-1 (Homo sapiens) (UniProt Q96EB6).
T4 sequence (whole entry): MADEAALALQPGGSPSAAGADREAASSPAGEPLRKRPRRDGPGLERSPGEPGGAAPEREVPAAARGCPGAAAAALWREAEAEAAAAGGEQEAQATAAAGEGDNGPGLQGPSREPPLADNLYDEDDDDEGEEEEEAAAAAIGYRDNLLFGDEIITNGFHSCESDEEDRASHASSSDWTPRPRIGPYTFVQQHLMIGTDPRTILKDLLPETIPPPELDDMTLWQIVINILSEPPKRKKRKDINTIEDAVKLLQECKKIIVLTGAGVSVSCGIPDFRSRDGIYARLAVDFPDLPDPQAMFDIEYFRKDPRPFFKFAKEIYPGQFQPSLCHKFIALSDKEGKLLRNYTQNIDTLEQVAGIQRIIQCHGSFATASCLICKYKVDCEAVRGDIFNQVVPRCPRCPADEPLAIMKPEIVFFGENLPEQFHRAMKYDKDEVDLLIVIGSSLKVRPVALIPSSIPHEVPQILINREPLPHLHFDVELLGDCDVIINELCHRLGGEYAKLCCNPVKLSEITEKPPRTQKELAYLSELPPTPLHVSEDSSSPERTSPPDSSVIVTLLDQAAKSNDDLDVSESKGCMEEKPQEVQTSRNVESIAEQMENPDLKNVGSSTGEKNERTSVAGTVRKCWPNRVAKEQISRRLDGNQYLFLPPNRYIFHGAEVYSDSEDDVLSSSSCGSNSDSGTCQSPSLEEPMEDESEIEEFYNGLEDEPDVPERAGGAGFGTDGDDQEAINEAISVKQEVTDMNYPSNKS
The assay can be described thus: Substrate activity at human N-terminal His-tagged SIRT1 (183 to 664 residues) expressed in Escherichia coli at 50 uM measured after 2 hrs in presence of NAD+ and trypsin by fluorescence assay.

Assay [8] deals with NAD-dependent protein deacylase sirtuin-6 (Homo sapiens) (UniProt Q8N6T7). Briefly: Substrate activity at human N-terminal His-tagged SIRT6 (1 to 355 residues) expressed in Escherichia coli at 0.5 uM measured after 2 hrs in presence of NAD+ and trypsin by fluorescence assay.
NAD-dependent protein deacylase sirtuin-6 (Homo sapiens), sequence (Q8N6T7 whole entry, the tested form may be a part): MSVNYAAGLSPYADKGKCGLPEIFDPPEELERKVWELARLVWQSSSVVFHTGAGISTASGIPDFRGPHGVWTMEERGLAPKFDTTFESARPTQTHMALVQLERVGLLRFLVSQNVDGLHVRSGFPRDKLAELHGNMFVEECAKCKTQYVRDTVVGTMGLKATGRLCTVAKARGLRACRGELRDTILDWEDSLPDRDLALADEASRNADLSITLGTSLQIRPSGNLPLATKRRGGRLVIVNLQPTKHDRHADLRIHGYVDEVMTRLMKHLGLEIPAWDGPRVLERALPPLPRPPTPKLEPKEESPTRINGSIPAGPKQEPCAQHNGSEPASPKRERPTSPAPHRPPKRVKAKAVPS
Assay [9] concerns the target NAD-dependent protein deacylase sirtuin-5, mitochondrial (Homo sapiens) (UniProt Q9NXA8). Briefly: Substrate activity at human N-terminal His-tagged SIRT5 (34 to 302 residues) expressed in Escherichia coli at 50 uM measured after 2 hrs in presence of NAD+ and trypsin by fluorescence assay.
The target of assay [10] is T1, NAD-dependent protein deacetylase sirtuin-3, mitochondrial (Homo sapiens). The assay can be described thus: Substrate activity at human N-terminal His-tagged SIRT3 (122 to 391 residues) expressed in Escherichia coli at 0.5 uM measured after 2 hrs in presence of NAD+ and trypsin by fluorescence assay.
Assay [11] concerns the target T4, NAD-dependent protein deacetylase sirtuin-1 (Homo sapiens). Briefly: Substrate activity at human N-terminal His-tagged SIRT1 (183 to 664 residues) expressed in Escherichia coli at 0.5 uM measured after 2 hrs in presence of NAD+ and trypsin by fluorescence assay.
Assay [12] addresses NAD-dependent protein deacylase sirtuin-6 (Homo sapiens) (UniProt Q8N6T7). Briefly: Substrate activity at human N-terminal His-tagged SIRT6 (1 to 355 residues) expressed in Escherichia coli at 50 uM measured after 2 hrs in presence of NAD+ and trypsin by fluorescence assay.
Assay [13] shares this target. The assay can be described thus: Substrate activity at human N-terminal His-tagged SIRT6 (1 to 355 residues) expressed in Escherichia coli at 5 uM measured after 2 hrs in presence of NAD+ and trypsin by fluorescence assay.
Assay [14] deals with NAD-dependent protein deacylase sirtuin-5, mitochondrial (Homo sapiens) (UniProt Q9NXA8). The assay can be described thus: Substrate activity at human N-terminal His-tagged SIRT5 (34 to 302 residues) expressed in Escherichia coli at 5 uM measured after 1 hr in presence of NAD+ and trypsin by fluorescence assay.
The target is the same in assay [15]. The assay can be described thus: Substrate activity at human N-terminal His-tagged SIRT5 (34 to 302 residues) expressed in Escherichia coli at 5 uM measured after 2 hrs in presence of NAD+ and trypsin by fluorescence assay.
Assay [16] addresses T1, NAD-dependent protein deacetylase sirtuin-3, mitochondrial (Homo sapiens). Briefly: Substrate activity at human N-terminal His-tagged SIRT3 (122 to 391 residues) expressed in Escherichia coli at 50 uM measured after 2 hrs in presence of NAD+ and trypsin by fluorescence assay.
Assay [17] has as its target T3, NAD-dependent protein deacetylase sirtuin-2 (Homo sapiens). The assay can be described thus: Substrate activity at human N-terminal His-tagged SIRT2 (56 to 356 residues) expressed in Escherichia coli at 50 uM measured after 2 hrs in presence of NAD+ and trypsin by fluorescence assay.
Assay [18] concerns the target T2, NAD-dependent protein deacetylase sirtuin-7 (Homo sapiens). Briefly: Substrate activity at human N-terminal His-tagged SIRT7 (68 to 354 residues) expressed in Escherichia coli at 5 uM measured after 2 hrs in presence of NAD+ and trypsin by fluorescence assay.
Assay [19] addresses T4, NAD-dependent protein deacetylase sirtuin-1 (Homo sapiens). The assay can be described thus: Substrate activity at human N-terminal His-tagged SIRT1 (183 to 664 residues) expressed in Escherichia coli at 5 uM measured after 2 hrs in presence of NAD+ and trypsin by fluorescence assay.

Take `CC(=O)N[C@@H](Cc1cnc[nH]1)C(=O)N[C@@H](Cc1ccccc1)C(=O)N[C@@H](CO)C(=O)N[C@@H](CCCCNC(=O)CCC(=O)O)C(=O)Nc1ccc2c(C)cc(=O)oc2c1` (Ac-HFSK(Suc)-{AMC}): the Activity in [1] worked out at 0.55 RFU; in assay [2], 0.28 RFU; in assay [3], 1.15 RFU; in assay [4] it was 0.16 RFU; in assay [5] it was 0.21 RFU; in assay [6], 0.51 RFU. Also, the Activity in assay [7] was determined as 0.69 RFU; in assay [8], 0.41 RFU; in assay [9], 0.71 RFU; in [10] it was 0.49 RFU; in assay [11] it was 0.16 RFU; in assay [12], 0.51 RFU. The Activity in assay [13] is 0.32 RFU; in assay [15], 8.98 RFU; in [16] it was 0.89 RFU; in [17], 1.03 RFU; in assay [18], 1.36 RFU; in assay [19] it was 0.36 RFU. In assay [14], the outcome was Active.

Regarding `CC(=O)N[C@@H](CC(C)C)C(=O)NCC(=O)N[C@@H](CO)C(=O)N[C@@H](CCCCNC(=O)CCC(=O)O)C(=O)Nc1ccc2c(C)cc(=O)oc2c1` (Ac-LGSK(Suc)-{AMC}), the Activity in assay [1] was determined as 0.56 RFU; in assay [2], 0.28 RFU; in [3], 3.07 RFU; in assay [4], 0.2 RFU; in [5], 0.21 RFU; in assay [6], 1.14 RFU. Besides, the Activity in [7] is 0.98 RFU; in assay [8], 0.41 RFU; in [9], 1.41 RFU; in assay [10] it was 0.5 RFU; in assay [11], 0.2 RFU; in assay [12] it was 1.14 RFU. Moreover, the Activity in assay [13] worked out at 0.37 RFU; in assay [15], 25.1 RFU; in assay [16], 1.42 RFU; in assay [17], 0.9 RFU; in assay [18], 0.32 RFU; in assay [19] it was 0.35 RFU. The result in [14] was Active.

Regarding `CCCCCCCCCC(=O)NCCCC[C@H](NC(=O)[C@H](CCCNC(=N)N)NC(=O)[C@H](C)NC(=O)[C@@H](NC(C)=O)[C@@H](C)O)C(=O)Nc1ccc2c(C)cc(=O)oc2c1` (Ac-TARK(Decanoyl)-{AMC}), the Activity in assay [1] worked out at 0.4 RFU; in [2], 0.35 RFU; in assay [3] it was 0.26 RFU; in assay [4] it was 0.25 RFU; in assay [5], 0.65 RFU; in [6], 0.79 RFU. The Activity in [7] was determined as 1.43 RFU; in assay [8], 0.48 RFU; in [9], 1.38 RFU; in [10] it was 0.26 RFU; in [11], 0.25 RFU; in [12], 0.79 RFU. The Activity in assay [13] was 0.38 RFU; in [15], 0.28 RFU; in [16], 1.08 RFU; in [17] it was 1.94 RFU; in assay [18] it was 0.35 RFU; in assay [19] it was 0.46 RFU.

Turning to `CC(=O)NCCCC[C@H](NC(=O)[C@H](CC(C)C)NC(=O)[C@H](CCCCN)NC(=O)[C@H](Cc1ccc(O)cc1)NC(C)=O)C(=O)Nc1ccc2c(C)cc(=O)oc2c1` (Ac-YKLK(Ac)-{AMC}), the Activity amounted to 2.28 RFU in [1]; 0.31 RFU in [2]; 0.24 RFU in assay [3]; 0.52 RFU in assay [4]; 3.84 RFU in assay [5]; 0.97 RFU in [6]. For the same compound, the Activity in [7] was 33 RFU; in assay [8] it was 0.5 RFU; in [9], 1.29 RFU; in assay [10], 0.54 RFU; in assay [11] it was 0.52 RFU; in [12], 0.97 RFU. For the same compound, the Activity in [13] is 0.39 RFU; in [15], 0.31 RFU; in assay [16] it was 9.82 RFU; in [17], 25.2 RFU; in assay [18] it was 1.09 RFU; in assay [19], 6.39 RFU.
